From PubChem BioAssay AID2060509 (Molecular Pharmacology Branch, DTP, NCI, 2025)

Test system: 485176-168-R4-J1-PDC spheroids with HUVEC/MSC, viability
Test: Anticancer human tumor 485176-168-R4-J1-PDC patient-derived pancreatic adenocarcinoma cell line growth inhibition [GQUAD]
Details: for IC50: curve of first compound; for viability, T/C: stronger effect = lower value
Excerpt: DNA G-quadruplex Stabilizer Agents in Combinations in Complex Spheroids
A high-throughput screen of multi-cell type tumor spheroids was designed to identify active combinations of DNA G-quadruplex stabilizer agents and targeted small molecules. Complex spheroids include a stromal component modeled by human endothelial cells (HUVEC) and fibroblasts modeled by human mesenchymal stem cells (MSCs). The concentration ranges selected for each drug and investigational agent were based upon clinically achievable concentrations if the clinical Cmax of the agent was known.
Compounds. The drugs and investigational agents: pidnarulex (CX-5461; NSC782164), APTO-253 (NSC789042), BRACO-19 (NSC847499), peposertib (NSC802822), ceralasertib (NSC780249), elimusertib (NSC800525), camonsertib (NSC841442), AZD-1390 (NSC803789), olaparib (NSC753686), talazoparib (NSC767125), ART-558 (NSC835418), sotorasib (NSC818433), MRTX-1133 (NSC836407), SN-38 (NSC673596), topotecan (NSC609699), etoposide (NSC141540), doxorubicin (NSC123127), gemcitabine (NSC613327), 5-fluorouracil (NSC19893), paclitaxel (NSC125973), vemurafenib (NSC761431), panobinostat (NSC761190), R-306465 (JNJ-16241199; NSC773264), adavosertib (NSC754352), TP-3654 (NSC805149), carboplatin (NSC241240), KSQ-4279 (NSC840948), and staurosporine (NSC755774) were obtained from the National Cancer Institute (NCI) Developmental Therapeutics Program Chemical Repository (34). The FDA-approved anticancer drug set is available from the NCI Developmental Therapeutics Program. […] The stock solutions were prepared in dimethyl sulfoxide (DMSO, Sigma-Aldrich, St. Louis, MO, cat. D2650) at 800-fold the tested concentration and stored at -70 degrees C prior to their use. All drugs and investigational agents were tested over a range starting from a high concentration at or near the clinical Cmax and decreasing in half-log increments. If the clinical Cmax for an agent had not been determined, the highest concentration tested was 10 microM.
2.3 Cell Culture. All cells were maintained in an incubator at 37 degrees C and 5% CO2 with 95% humidity. The PDC lines were cultured according to standard operating procedures established by the NCI PDMR. All PDCs were thawed and cultured in Matrigel-coated flasks prepared with a working solution of 1X Ham's F-12 nutrient mix, without supplementation (Invitrogen, cat. 11765054), 100 U/mL penicillin-streptomycin (Invitrogen, cat. 15140122), and 2.5% Matrigel (Corning Inc., cat. 354248) for the first three passages. The 857933-349-R-J2-PDC line was cultured in 6C/Colon 1B media, which includes advanced DMEM/F-12 (Thermo Fisher Scientific, cat. 12634028), 10 mM HEPES (Thermo Fisher Scientific, cat. 15630080), 1X GlutaMAX supplement (Thermo Fisher Scientific, cat. 35050061), 0.1 mg/mL primocin (InvivoGen, cat. ant-pm-2), 10% defined fetal bovine serum, heat inactivated (HyClone Laboratories Inc., cat. SH30070.03HI), 50% L-WRN conditioned media (ATCC, cat. CRL-3276), 1.25 mM N-Acetyl-L-cysteine (Sigma-Aldrich, cat. A9165), 10 mM nicotinamide (Sigma-Aldrich, cat. N0636), 1X B-27 supplement (Thermo Fisher Scientific, cat. 17504044), 1X N-2 supplement (Thermo Fisher Scientific, cat. 17502048), 10 microM Y-27632 dihydrochloride (Tocris Bioscience, cat. 1254), and 50 ng/mL human EGF recombinant protein (Thermo Fisher Scientific, cat. PHG0311). The 485176-168-R4-J1-PDC line was cultured in Panc media, which includes all 6C/Colon 1B media components plus 100 ng/mL human FGF-10 (Thermo Fisher Scientific, cat. 100-26), 500 nM SB-431542 (Selleckchem, cat. S1067), and gastrin (Tocris, cat. 3006).
[…]
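Note: spheroids exposed to compounds for seven days before readout.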
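Throughout, for viability, T/C: percent viability relative to DMSO vehicle control wells as 100%.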

Question: What does the source list for `CC(C)(O)C1CCC(Nc2ccc3ncc(-c4cccc(C(F)(F)F)c4)n3n2)CC1` (configuration not stated) + Cc1cnc(CNC(=O)c2c(=O)c3ccc(N4CCCN(C)CC4)nc3n3c2sc2ccccc23)cn1?
Answer: IC50 (second compound 0.0316 µM): > 10000 nM; IC50 (second compound 0.1 µM): 4380 nM; IC50 (second compound 0.316 µM): 1370 nM; IC50 (second compound 1 µM): 371 nM; IC50 (second compound 3.16 µM): 39.9 nM; IC50 (second compound 10 µM): < 31.6 nM; viability, T/C (second compound 0.0316 µM, first compound 0.0316 µM): 94.1%; viability, T/C (second compound 0.0316 µM, first compound 0.1 µM): 81.3%; viability, T/C (second compound 0.0316 µM, first compound 0.316 µM): 97.5%; viability, T/C (second compound 0.0316 µM, first compound 1 µM): 67%; viability, T/C (second compound 0.0316 µM, first compound 3.16 µM): 49.7%; viability, T/C (second compound 0.0316 µM, first compound 10 µM): 51.6%; viability, T/C (second compound 0.1 µM, first compound 0.0316 µM): 64.5%; viability, T/C (second compound 0.1 µM, first compound 0.1 µM): 71.7%; viability, T/C (second compound 0.1 µM, first compound 0.316 µM): 57.6%; viability, T/C (second compound 0.1 µM, first compound 1 µM): 65.8%; viability, T/C (second compound 0.1 µM, first compound 3.16 µM): 47.2%; viability, T/C (second compound 0.1 µM, first compound 10 µM): 44.8%; viability, T/C (second compound 0.316 µM, first compound 0.0316 µM): 57.3%; viability, T/C (second compound 0.316 µM, first compound 0.1 µM): 55.1%; viability, T/C (second compound 0.316 µM, first compound 0.316 µM): 58.9%; viability, T/C (second compound 0.316 µM, first compound 1 µM): 54.1%; viability, T/C (second compound 0.316 µM, first compound 3.16 µM): 38.4%; viability, T/C (second compound 0.316 µM, first compound 10 µM): 39.7%; viability, T/C (second compound 1 µM, first compound 0.0316 µM): 49.2%; viability, T/C (second compound 1 µM, first compound 0.1 µM): 48.9%; viability, T/C (second compound 1 µM, first compound 0.316 µM): 54%; viability, T/C (second compound 1 µM, first compound 1 µM): 45.5%; viability, T/C (second compound 1 µM, first compound 3.16 µM): 31.4%; viability, T/C (second compound 1 µM, first compound 10 µM): 36.2%; viability, T/C (second compound 3.16 µM, first compound 0.0316 µM): 52.5%; viability, T/C (second compound 3.16 µM, first compound 0.1 µM): 45%; viability, T/C (second compound 3.16 µM, first compound 0.316 µM): 43.3%; viability, T/C (second compound 3.16 µM, first compound 1 µM): 42.8%; viability, T/C (second compound 3.16 µM, first compound 3.16 µM): 25.2%; viability, T/C (second compound 3.16 µM, first compound 10 µM): 15.8%; viability, T/C (second compound 10 µM, first compound 0.0316 µM): 43.4%; viability, T/C (second compound 10 µM, first compound 0.1 µM): 38.8%; viability, T/C (second compound 10 µM, first compound 0.316 µM): 41.6%; viability, T/C (second compound 10 µM, first compound 1 µM): 37.9%; viability, T/C (second compound 10 µM, first compound 3.16 µM): 0.55%; viability, T/C (second compound 10 µM, first compound 10 µM): 0.23%
